This assay has as its system 5-lipoxygenase. The experiment in a line: 5-lipoxygenase inhibition: oxygen uptake of washed human platelets after arachidonic acid (oxygraph cells). The format is cell-based. To be noted: arachidonic acid added to washed human platelets; oxygen uptake versus control cell; read-out: approximate ED50, 5-lipoxygenase inhibition (decrease of oxygen uptake). The procedure:
The compounds of the present invention were also tested for 5-lipoxygenase inhibition. Arachidonic acid is added to washed human platlets and the oxygen uptake is measured using oxygraph cells. A decrease of oxygen uptake versus the control cell indicates inhibition of lipoxygenase. For a fuller description of the procedure see, Wallach, et al., Biochim. Biophys. Acta. 231:445 (1976).

Consider `COC(=O)c1cc(NCc2cccnc2)ccc1O` [Example 3, 5-(3-Pyridinylmethylamino)salicylic Acid, Methyl Ester], for which the IC50 was approximately 10 µM.

The values above are taken from patent US4486593A, “2-,3-, or 4-Pyridinylmethylamino arylic acids as thromboxane A2 synthetase and 5-lipoxygenase inhibitors” (The Upjohn Company, priority 1983, dated 1984).
